Results reported in patent publication US20250325684A1, “POTENT ANTI-CANCER CYCLOTIDES” (University of Southern California, priority 2022, published 2025).
“Also recorded” adds a separate entry of the source. Numbered stars: 1 amine (or outer) side, 2 acyl side, 3 side chain; on linkers, the order of the positions; unused ones are H or OH. Bridge positions count the residues as written; N and C are the ends. Square brackets hold non-standard residues; d marks the D form. Peptide text beside a SMILES is read from it. I, II: the chains in the order shown. X1 = O=C(CCc1cn(CCOCCOCCOCCC(=O)[*:2])nn1)[*:1]; isoGln = NC(=O)[C@H](CCC(=O)[*:2])N[*:1]

Assays:
HCT116^−/− = assay: MTT cell viability, HCT116 p53-null cells; type: cell-based, human; settings: HCT116^−/− colon carcinoma, p53 Null; MTT; read-out: EC50
Method: Cell viability assay in several human cancer cell lines (See Tables 1 to 10). Cell lines were cultured in RPMI 1640 (or recommended medium when indicated) medium supplemented with 10% fetal calf serum, penicillin (50 IU/mL) and streptomycin ([…]) at 37° C. in 5% CO2. Cell viability studies was carried using the MTT (3-(4,5-dimethylthiazol-2-yl)-2,5-diphenyltetrazolium bromide) assay as previously described (31). Briefly, ≈2×10^3 CRC cells were be seeded in 96-well microtiter plates in 100 μL RPMI 1640 in the presence of 10% calf serum. […] After 1 h, 210 μL/well of full complemented media was added, the cells were grown for 48 h and then treated with 20 μL of a solution of MTT (5 mg/mL) for 2 h. The medium was discarded and DMSO ([…]) was added to each well and incubated with gentle shaking for 20 min at room temperature. The absorbance at 595 nm of the solution is analyzed using a Tecan Genios Multifunctional Microplate Reader (Tecan System Inc) and the background at 670 nm subtracted. RNA-Seq analysis was performed using state-of-the-art bioinformatics tools. Briefly, raw RNA-Seq reads were mapped to human genome (hg38) using STAR aligner (v2.7.3a). Gencode Release 36 reference was used for annotation. Transcript and gene expression levels were quantified using the IsoEM (37) with default parameters. […]
Cell viability was evaluated using the MTT assay as described above.

[1] = test system: p53 pathway in LNCaP cells; assay: Activation of the p53 pathway in LNCaP cells; type: cell-based, human
Method: Activation of the p53 pathway requires 6 to 8 h after exposing the cells to cyclotide MCo-52-2 for 1 h (FIG. 5B).
Stabilization of p53 could be observed just 8 h after treating the cells with the bioactive cyclotide (FIG. 5B), likely indicating the cyclotide crosses the cellular membrane into the cytosol through an endocytic mechanism as previously described for this type of microproteins (30, 31). […] These transcription factors (ATF3, FOXO3a and RUNX3) and kinases (DYRK2 and HIPK2) have been described to be regulated by the E3 ligase activity of Hdm2/HdmX (6). […] In both cases the peptide was able to inhibit tumor growth by 60% (HCT116-nude mice) and 80% (CT26-Balb/c mice) (FIG. 7).

HCT116 xenografts = assay: HCT116 xenograft in nude mice; type: in vivo, mouse; settings: two murine models of colorectal carcinoma
Method: Mice xenografts studies. HCT116 p53^−/− and CT26 xenografts were established by injecting 100 uL suspension of basal RPMI containing 0.5×10^6 cells into the rear right flanks of female nude mice (nu/nu) mice (HCT116) or Balb/C (CT26). When tumors reached an average volume of ≈100 mm^3, cohorts (n≥4) were treated with vehicle (5% dextrose in water, D5W), MCo-52-2-cTAT (40 mg/kg), or Nutlin-3 (20 mg/kg, […]) once daily for up to 38 days by intravenous injection (MCo-52-2-cTAT and vehicle) or by intraperitoneal administration (Nutlin-3) for HCT116 xenografts; or with vehicle (D5W), MCo-52-2-cTAT (25 mg/kg) three times per week by intraperitoneal injection. Compounds were prepared in a D5W at a final volume of 50 μL (peptide) or 100 μL (Nutlin-3). […] Individual weights were recorded thrice weekly, comparing the control and treatment groups as an additional indicator of tolerance of drug treatment as well as providing the average weight for calculation of drug dosing. Tumor size was measured with calipers. Tumor volume was calculated by measuring tumor size in two dimensions and applying those measurements to the calculation V=d^2×D/2, where d and D equal to the smaller and larger of the two measurements, respectively. […]

[2] = Toxicity observation in tumor-bearing mice; type: in vivo, mouse; settings: dosed up to 40 mg/kg three times per week
Method: Tumor samples were also subjected to SDS-PAGE and analyzed by western blotting for p53, Hdm2, and p21. GAPDH was used as loading control in western blots.
Mice xenografts studies. HCT116 p53^−/− and CT26 xenografts were established by injecting 100 uL suspension of basal RPMI containing 0.5×10^6 cells into the rear right flanks of female nude mice (nu/nu) mice (HCT116) or Balb/C (CT26). […] Compounds were prepared in a D5W at a final volume of 50 μL (peptide) or 100 μL (Nutlin-3). Health checks were performed daily to observe parameters such as body conditioning score, overall appearance and cleanliness, strength of grip, skin color and tone, mobility, gait and activity level as indicators of potential drug related toxicities. Individual weights were recorded thrice weekly, comparing the control and treatment groups as an additional indicator of tolerance of drug treatment as well as providing the average weight for calculation of drug dosing. Tumor size was measured with calipers. Tumor volume was calculated by measuring tumor size in two dimensions and applying those measurements to the calculation V=d^2×D/2, where d and D equal to the smaller and larger of the two measurements, respectively. Mice bearing tumors larger than 2.4 cm^3 were removed from the study, sacrificed and necropsies performed to gather tumor and organ samples for histological analysis. […]

[3] = Immunogenicity, IgG titer ELISA in Balb/c mice; type: in vivo, mouse; settings: intraperitoneal 25 mg/kg, 3 times per week for 28 days, listed as MCo-52-2-cTAT
Method: The ELISA assay was performed as follows. Micro microplate wells were coated with pmol of streptavidin and then blocked with a 5 solution of nonfat dry milk in PBS. Around of 150 pmol of the corresponding biotinylated antigen (MCo-52-2 or cTAT) were incubated with the streptavidin-coated wells. Murine IgG (m-IgG, 150 pmol) and PBS (no antigen) were used as positive and negative controls in the assay, respectively. Wells coated with antigens MCo-52-2 and cTAT were incubated with serial dilutions of sera from mice untreated and treated with cyclotide MCo-52-2-cTAT. The amount of murine IgG was detected using a goat HRP-conjugated anti-mouse IgG.

Row | Compound | EC50 (HCT116^−/−) | Time until activation of the p53 pathway / stabilization of p53 ([1]; after exposing the cells to cyclotide for 1 h, listed as MCo-52-2-cTAT) | Activation of the p53 pathway ([1]; wild type-p53, listed as MCo-52-2-cTAT) | p53 expression on tumor tissue (western blotting) (HCT116 xenografts) | Toxic effects [2] | Immunogenicity, IgG titer against the cyclotide [3]
1 | N=C(N)NCCC[C@@H]1NC(=O)[C@@H](CCCNC(=N)N)NC(=O)[C@H](CCCCN)NC(=O)[C@@H](N)CCCCNC(=O)CC[C@@H](C(=O)O)NC(=O)[C@@H](CCCNC(=N)N)NC(=O)[C@H](CCCNC(=N)N)NC(=O)[C@@H](CCCCN)NC(=O)[C@H](CCCCN)NC(=O)[C@@H](CCCNC(=N)N)NC(=O)CNC(=O)[C@@H](CCCNC(=N)N)NC1=O [cTAT] (H-KK[dR]R[dR]G[dR]K[dK]R[dR]E-OH; lactam 1-12; N-terminus and C-terminus assumed) | > 100 µM |  |  |  |  | 
2 | I: cyclo(ACICRHDSYCGSGSDGGVCPNLYLLCRRDKDCPG) / II: KK[dR]R[dR]G[dR]K[dK]R[dR][isoGln] (disulfide I:2-I:19, I:4-I:26, I:10-I:32; linker I:30-II:N via X1; lactam II:1-II:C) [Cyclotide 52-2-cTAT] |  | 8 h | activate the p53 pathway in wild type-p53 cancer cells (LNCaP) in a dose-dependent fashion; also recorded: activates the p53 pathway in LNCaP cells in a dose-dependent fashion | stabilizes p53 expression on tumor tissue | No toxic effects were detected | did not show any significant IgG titer; also recorded: little immunogenicity
